For one data set, the target named is T1, Mushroom tyrosinase (Agaricus bisporus, UniProt C7FF04).
T1 construct: purchased Sigma-Aldrich (Shanghai, China)
The experiment in a line: Tyrosinase inhibitory activity assay (L-DOPA, absorbance 475 nm). The settings on record: for inhibition at 32 µM: initial concentration of 32 μM. It counts as biochemical. Here is the method:
The tyrosinase inhibitory activities of compounds 5a~5z were determined according to previous reports. In brief, 10 μL of compound was added into 140 μL of tyrosinase, incubated for 5 min at room temperature. Then, 50 μL of L-DOPA was added, followed by the measurement of absorbance change at 475 nm. The inhibition rate at different concentrations was calculated and compared to the blank control.

For data set [1], the system named is melanogenesis in B16F10 cells. Put plainly: Melanin content in B16F10 cells. The format is cell-based. The conditions noted are these: 16 and 32 μM, 48 h. As to the method: B16F10 cell treatment was consistent with the above method. The harvested cells were suspended into NaOH (1 M, 200 μL). After boiling for 1 h, the mixture was measured to determine the absorbance change at wavelength of 405 nm.

Data set [2] has as its system melanogenesis in zebrafish. Put plainly: Melanin content in zebrafish (microscope, Image J). The settings on record: compared to control embryo. It counts as in vivo. Here is the method: The embryos treated with compound 5w or kojic acid were observed under a microscope and the melanin content was assayed using Image J software.
In data set [3] the test system is tyrosinase activity in B16F10 cells. The experiment in a line: Tyrosinase activity in B16F10 cells. It counts as cell-based. The conditions noted are these: 16 and 32 μM, 48 h. As to the method: The tyrosinase inhibitory activity of 5w in B16F10 cells was determined. B16F10 cells (1 × 10^5 cells/well) were seeded into the 6-well plate for 24 h and subsequently treated with compound 5w or kojic acid for another 48 h. Then, the harvested cells were suspended into the appropriate amount of Triton X-100 (1%) and frozen for 1 h at −80 °C. After it had thawed, the mixture was centrifuged to collect the supernatant. Then, its protein concentration was determined using a BCA Kit. After 20 μL of L-DOPA (10 mM) was added into 80 μL of protein solution, the absorbance change at 475 nm was measured.

In a further data set the test system is B16F10 cells. The experiment in a line: Cell cytotoxicity (MTT). It counts as cell-based. The settings on record: 4~32 μM, 48 h. Here is the method:
The effects of compound 5w and kojic acid on the cells’ viability were determined using the MTT method. B16F10 cells (5000 cells/well) were seeded into the 96-well plate for 24 h, followed by the treatment of compound 5w or kojic acid (4~32 μM) for another 48 h. Then, MTT solution (0.5 mg/mL) was added and incubated for 4 h. DMSO (100 μL) was used to dissolve the violet precipitates, and then the mixture was measured for its absorbance at 570 nm.

Data set [4] deals with tyrosinase activity in zebrafish. Put plainly: Tyrosinase activity in zebrafish. It counts as in vivo. The conditions noted are these: zebrafish embryos. Here is the method: The embryos treated with compound 5w or kojic acid were lysed in PBS, followed by centrifugation to obtain the supernatant. The appropriate amount of supernatant, equal L-DOPA (5 mg/mL), was added and the absorbance at 475 nm was determined.

Results on 26 compounds are retold here after publication PMC10673563, “In Vitro and In Vivo Biological Evaluation of Indole-thiazolidine-2,4-dione Derivatives as Tyrosinase Inhibitors” (Molecules, 2023).

T1 sequence (C7FF04 1-392): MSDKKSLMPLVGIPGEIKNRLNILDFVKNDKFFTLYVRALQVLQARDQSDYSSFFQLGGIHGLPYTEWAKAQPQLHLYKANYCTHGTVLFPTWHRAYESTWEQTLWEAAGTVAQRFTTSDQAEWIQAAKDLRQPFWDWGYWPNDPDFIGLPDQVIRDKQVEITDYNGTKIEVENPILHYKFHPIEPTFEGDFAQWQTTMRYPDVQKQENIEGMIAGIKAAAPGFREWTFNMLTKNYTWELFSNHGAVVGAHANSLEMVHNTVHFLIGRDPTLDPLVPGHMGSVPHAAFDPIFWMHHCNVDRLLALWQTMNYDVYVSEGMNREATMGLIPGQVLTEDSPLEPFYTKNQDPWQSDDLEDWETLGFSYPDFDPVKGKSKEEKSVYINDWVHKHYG

On to `O=C(CN1C(=O)S/C(=C\c2cccc(C(F)(F)F)c2)C1=O)NCCc1c[nH]c2ccccc12` [5o], for which 32 µM produced 4.5% inhibition at Mushroom tyrosinase. For `Cc1cccc(/C=C2\SC(=O)N(CC(=O)NCCc3c[nH]c4ccccc34)C2=O)c1` [5c], on Mushroom tyrosinase, at 32 µM the inhibition was 33.2%. Regarding `O=C(CN1C(=O)S/C(=C\c2ccc(O)cc2)C1=O)NCCc1c[nH]c2ccccc12` [5v], on Mushroom tyrosinase, the inhibition at 32 µM is 24.6%. `O=C(CN1C(=O)S/C(=C\c2cccc(Br)c2)C1=O)NCCc1c[nH]c2ccccc12` [5l]: at Mushroom tyrosinase, the IC50 worked out at 13.3 µM and the inhibition at 32 µM is over 70%. Take `O=C(CN1C(=O)S/C(=C\c2ccccc2)C1=O)NCCc1c[nH]c2ccccc12` [5a]: testing at 32 µM against Mushroom tyrosinase gave an inhibition of 14.2%.

`Cc1ccccc1/C=C1\SC(=O)N(CC(=O)NCCc2c[nH]c3ccccc23)C1=O` [5b] returned an inhibition at 32 µM on Mushroom tyrosinase of 19.3%. As to `O=C(CN1C(=O)S/C(=C\c2ccc(C(F)(F)F)cc2)C1=O)NCCc1c[nH]c2ccccc12` [5p], the inhibition at 32 µM against Mushroom tyrosinase came out at 3%. With `O=C(CN1C(=O)S/C(=C\c2ccccc2Br)C1=O)NCCc1c[nH]c2ccccc12` [5k], the inhibition at 32 µM against Mushroom tyrosinase came to 31.7%. The compound `N#Cc1ccc(/C=C2\SC(=O)N(CC(=O)NCCc3c[nH]c4ccccc34)C2=O)cc1` [5x] displayed an inhibition at 32 µM against Mushroom tyrosinase of 24.6%.

Regarding `O=C(CN1C(=O)S/C(=C\c2cccc([N+](=O)[O-])c2)C1=O)NCCc1c[nH]c2ccccc12` [5y], on Mushroom tyrosinase, at 32 µM the inhibition was 19.8%. `O=c1cc(CO)occ1O` [Kojic acid, reference compound]: the “melanogenesis in B16F10 cells” value in data set [1] is on record as “could inhibit”. In data set [2] (Image J), the “grayscale values of whole embryos” value is on record as “decrease in grayscale values”. Besides, the “pigmentation of embryo (eyes, yolk sac, notum)” value in data set [2] (embryo photos) was “pigmentation decrease”. In addition, in data set [3], the cellular tyrosinase activity entry is reported as “could inhibit”. Besides, the “effect on cells' viability” value in the data set with B16F10 cells is given as “obvious effects”. Besides, in data set [4], the “tyrosinase activity in zebrafish” value was “could reduce the tyrosinase activity in zebrafish”. For `O=C(CN1C(=O)S/C(=C\c2cccc(F)c2)C1=O)NCCc1c[nH]c2ccccc12` [5f], testing at 32 µM against Mushroom tyrosinase gave an inhibition of 32.6%. Same read-out and setting: then `O=C(CN1C(=O)S/C(=C\c2cccc(O)c2)C1=O)NCCc1c[nH]c2ccccc12` [5u], with 36.2%; and `O=C(CN1C(=O)S/C(=C\c2ccc(Br)cc2)C1=O)NCCc1c[nH]c2ccccc12` [5m], with 19.5%. Compound `O=C(CN1C(=O)S/C(=C\c2ccccc2Cl)C1=O)NCCc1c[nH]c2ccccc12` [5h] registered an inhibition at 32 µM against Mushroom tyrosinase of 16.8%. On the same count and under the same terms, then `O=C(CN1C(=O)S/C(=C\c2ccccc2O)C1=O)NCCc1c[nH]c2ccccc12` [5t], with 26.9%; and `O=C(CN1C(=O)S/C(=C\c2cccc(Cl)c2)C1=O)NCCc1c[nH]c2ccccc12` [5i], with 37.6%. `O=C(CN1C(=O)S/C(=C\c2ccc(Cl)cc2)C1=O)NCCc1c[nH]c2ccccc12` [5j]: at Mushroom tyrosinase, 32 µM produced 36.6% inhibition. On the same count and under the same terms, then `Cc1ccc(/C=C2\SC(=O)N(CC(=O)NCCc3c[nH]c4ccccc34)C2=O)cc1` [5d], with 15.1%.

`COc1cccc(/C=C2\SC(=O)N(CC(=O)NCCc3c[nH]c4ccccc34)C2=O)c1` [5r] had an inhibition at 32 µM against Mushroom tyrosinase of 2%. The same measure, in the same setting: then `O=C(CN1C(=O)S/C(=C\c2ccc([N+](=O)[O-])cc2)C1=O)NCCc1c[nH]c2ccccc12` [5z], with 19.1%. Still for that read-out and setting: under `O=C(CN1C(=O)S/C(=C\c2ccccc2C(F)(F)F)C1=O)NCCc1c[nH]c2ccccc12` [5n] stands 3.8%; under `COc1ccc(/C=C2\SC(=O)N(CC(=O)NCCc3c[nH]c4ccccc34)C2=O)cc1` [5s], 1%. Same read-out and setting: under `COc1ccccc1/C=C1\SC(=O)N(CC(=O)NCCc2c[nH]c3ccccc23)C1=O` [5q] stands 1%; under `O=C(CN1C(=O)S/C(=C\c2ccc(F)cc2)C1=O)NCCc1c[nH]c2ccccc12` [5g], 27.4%.

For the compound `O=C(CN1C(=O)S/C(=C\c2ccccc2F)C1=O)NCCc1c[nH]c2ccccc12` [5e], the inhibition at 32 µM on Mushroom tyrosinase was determined as 16.5%.
